Experimental data taken from patent US4415567A, “7α-Methoxycephalosporin derivatives, and antibacterial drugs containing the same” (Eisai Co., Ltd., priority 1980, dated 1983).
In brackets after ≈: the same amount, converted by molar mass. Counter-ions that a name gives are not always drawn.

What was measured:
[1] = acute toxicity, LD50 (mouse, oral); conditions: in vivo
Description: The acute toxicity values [LD50 (mouse, oral)] for the following compounds of this invention were over 5 g/kg: […]

[2] = test system: Serratia marcescens ES-75; assay: MIC, standard agar dilution method, Serratia marcescens ES-75; format: cell-based; conditions: ES75, Mueller Hinton agar, 18 hours, 37° C.
Procedure: (§1) Minimal inhibitory concentration (MIC) was determined by the standard agar dilution method of the Japan Society of Chemotherapy.
(§2) Compounds were dissolved in appropriate solvents (sterilized water for sodium salts and acetone-water [1:1] for free acids) and serial two-fold dilutions were made. Sodium salt of Cefazolin was chosen as the control compound.
(§3) One-ml aliquots of each dilution were mixed with 9 ml of Mueller Hinton gar in petri-dishes to make agar plates containing the compound at serially diluted concentrations. After agar hardened, plates were put in an incubator at 37° C. for 1.5-2 hours with the lids slightly open to evaporate acetone off the plates.
(§4) Test organisms were grown for 18 hours at 37° C. in Trypticase Soy broth and diluted in saline to approximately 10^6 colony forming units per ml. A loopful of each cell suspension was applied on the agar plate mentioned above and the plates were incubated for 18 hours at 37° C. before MIC was determined.
(§5) The results are shown in Table 2, wherein the compound of Example 5 was selected and used in a form of free carboxylic acid as set forth in the Example 5, Item (a).

Escherichia coli NIHJ = assay: MIC, standard agar dilution method, Escherichia coli NIHJ; format: cell-based; conditions: Escherichia coli NIHJ; Mueller Hinton agar, 18 hours, 37° C.; read-out: MIC
Procedure: as §1, §2, §3, §4, §5

Proteus bulgaris E-18 = assay: MIC, standard agar dilution method, Proteus bulgaris E-18; format: cell-based; conditions: Mueller Hinton agar, 18 hours, 37° C.
Procedure: as §1, §2, §3, §4, §5

[3] = test system: Pseudomonas aeruginosa EP-172; assay: MIC, standard agar dilution method, Pseudomonas aeruginosa EP-172; format: cell-based; conditions: EP172, Mueller Hinton agar, 18 hours, 37° C.
Procedure: as §1, §2, §3, §4, §5

[4] = test system: Klebsielle pneumoniae EK-6; assay: MIC, standard agar dilution method, Klebsielle pneumoniae EK-6; format: cell-based; conditions: Klebsielle pneumoniae EK-6; Mueller Hinton agar, 18 hours, 37° C.; read-out: MIC
Procedure: as §1, §2, §3, §4, §5

[5] = test system: Staphylococcus aureus 209-P; assay: MIC, standard agar dilution method, Staphylococcus aureus 209-P; format: cell-based; conditions: Mueller Hinton agar, 18 hours, 37° C.
Procedure: as §1, §2, §3, §4, §5

Proteus morganii EP-14 = assay: MIC, standard agar dilution method, Proteus morganii EP-14; format: cell-based; conditions: Morganella morganii, EP14, Mueller Hinton agar, 18 hours, 37° C.
Procedure: as §1, §2, §3, §4, §5

Structure (SMILES)	LD50 [1] [mg/kg]	MIC [2] [mg/L]	MIC (Escherichia coli NIHJ) [mg/L]	MIC (Proteus bulgaris E-18) [mg/L]	MIC [3] [mg/L]	MIC [4] [mg/L]	MIC [5] [mg/L]	MIC (Proteus morganii EP-14) [mg/L]
CO[C@@]1(NC(=O)[C@H](NC(=O)c2coc3cc(O)c(O)cc3c2=O)c2ccc(O)cc2)C(=O)N2C(C(=O)O)=C(CSc3nnnn3CC(=O)O)CS[C@@H]21 [Example 16, 7β-[D-2-(6,7-Dihydroxychromone-3-carboxamido)-2-(4-hydroxyphenyl)acetamido]-7α-methoxy-3-1-carboxymethyl-5-tetrazolyl)thiomethyl-3-cephem-4-carboxylic acid disodium salt]	> 5000	–	–	–	–	–	–	–
CO[C@@]1(NC(=O)[C@H](NC(=O)c2coc3cc(O)c(O)cc3c2=O)c2ccc(O)cc2)C(=O)N2C(C(=O)O)=C(CSc3nnnn3C)CS[C@@H]21 [Example 3, 7β-[D-2-(6,7-Dihydroxychromone-3-carboxamido)-2-(4-hydroxyphenyl)acetamido]-7α-methoxy-3-(1-methyl-5-tetrazolyl)thiomethyl-3-cephem-4-carboxylic acid]	> 5000	≤ 0.1	0.4 (≈ 0.562 µM)	0.8 (≈ 1.12 µM)	0.8 (≈ 1.12 µM)	≤ 0.1	3.13 (≈ 4.4 µM)	3.13 (≈ 4.4 µM)
CCOC(=O)Oc1cc2occ(C(=O)N[C@@H](C(=O)N[C@]3(OC)C(=O)N4C(C(=O)O)=C(CSc5nnnn5CC(=O)OC)CS[C@@H]43)c3ccc(O)cc3)c(=O)c2cc1OC(=O)OCC [Example 20, 7β-[D-2-(6,7-Bis(ethoxycarbonyloxy)chromone-3-carboxamido)-2-(4-hydroxyphenyl)acetamido]-7α-methoxy-3-(1-methoxycarbonylmethyl-5-tetrazolyl)thiomethyl-3-cephem-4-carboxylic acid]	> 5000	0.2 (≈ 0.219 µM)	3.13 (≈ 3.43 µM)	0.8 (≈ 0.875 µM)	0.4 (≈ 0.438 µM)	≤ 0.1	6.25 (≈ 6.84 µM)	6.25 (≈ 6.84 µM)
CO[C@@]1(NC(=O)[C@H](NC(=O)c2coc3cc(OC(=O)OCC(Cl)(Cl)Cl)c(OC(=O)OCC(Cl)(Cl)Cl)cc3c2=O)c2ccc(O)cc2)C(=O)N2C(C(=O)O)=C(CSc3nnnn3C)CS[C@@H]21 [Example 23, 7β-[D-2-(6,7-Bis(2,2,2-trichloroethoxycarbonyloxy)chromone-3-carboxamido)-2-(4-hydroxyphenyl)-acetamido]-7α-methoxy-3-(1-methyl-5-tetrazolyl)thiomethyl-3-cephem-4-carboxylic acid]	> 5000	0.2 (≈ 0.188 µM)	6.25 (≈ 5.88 µM)	0.8 (≈ 0.753 µM)	0.8 (≈ 0.753 µM)	≤ 0.1	3.13 (≈ 2.95 µM)	6.25 (≈ 5.88 µM)
CO[C@@]1(NC(=O)[C@H](NC(=O)c2coc3c(O)c(O)ccc3c2=O)c2ccccc2)C(=O)N2C(C(=O)O)=C(COC(C)=O)CS[C@@H]21 [Example 7, 7β-[D-2-(7,8-Dihydroxychromone-3-carboxyamido)-2-phenylacetamido]-7α-methoxy-3-acetoxymethyl-3-cephem-4-carboxylic acid]	–	12.5 (≈ 19.5 µM)	3.13 (≈ 4.89 µM)	50 (≈ 78.2 µM)	3.13 (≈ 4.89 µM)	0.2 (≈ 0.313 µM)	6.25 (≈ 9.77 µM)	100 (≈ 156 µM)
CO[C@@]1(NC(=O)[C@H](NC(=O)c2coc3cc(O)c(O)cc3c2=O)c2ccc(O)cc2)C(=O)N2C(C(=O)O)=C(CSc3nnc(C)s3)CS[C@@H]21 [7β-[D-2-(6,7-Dihydroxychromone-3-carboxamido)-2-(4-hydroxyphenyl)acetamido]-7α-methoxy-3-[5-methyl-2-(1,3,4-thiadiazolyl)]thiomethyl-3-cephem-4-carboxylic acid]	> 5000	–	–	–	–	–	–	–
CO[C@@]1(NC(=O)[C@H](NC(=O)c2coc3c(OC(C)=O)c(OC(C)=O)ccc3c2=O)c2ccc(O)cc2)C(=O)N2C(C(=O)O)=C(CSc3nnnn3C)CS[C@@H]21 [Example 2]	–	0.8 (≈ 1.01 µM)	3.13 (≈ 3.93 µM)	6.25 (≈ 7.85 µM)	0.8 (≈ 1.01 µM)	≤ 0.1	1.56 (≈ 1.96 µM)	50 (≈ 62.8 µM)
CO[C@@]1(NC(=O)[C@H](NC(=O)c2coc3cc(O)c(O)cc3c2=O)c2ccccc2)C(=O)N2C(C(=O)O)=C(COC(C)=O)CS[C@@H]21 [Example 5, 7β-[D-2-(6,7-Dihydroxychromone-3-carboxamido)-2-phenylacetamido]-7α-methoxy-3-acetoxymethyl-3-cephem-4-carboxylic acid]	–	0.2 (≈ 0.313 µM)	0.8 (≈ 1.25 µM)	0.8 (≈ 1.25 µM)	3.13 (≈ 4.89 µM)	≤ 0.1	3.13 (≈ 4.89 µM)	25 (≈ 39.1 µM)
CCn1nnnc1SCC1=C(C(=O)O)N2C(=O)[C@](NC(=O)[C@H](NC(=O)c3coc4cc(O)c(O)cc4c3=O)c3ccc(O)cc3)(OC)[C@H]2SC1 [Example 32, 7β-[D-2-(6,7-Dihydroxychromone-3-carboxamido)-2-(4-hydroxyphenyl)acetamido]-7α-methoxy-3-(1-ethyl-5-tetrazolyl)thiomethyl-3-cephem-4-carboxylic acid]	–	0.2 (≈ 0.276 µM)	3.13 (≈ 4.31 µM)	1.56 (≈ 2.15 µM)	0.4 (≈ 0.551 µM)	≤ 0.1	1.56 (≈ 2.15 µM)	12.5 (≈ 17.2 µM)
CO[C@@]1(NC(=O)[C@H](NC(=O)c2coc3c(O)c(O)ccc3c2=O)c2ccc(O)cc2)C(=O)N2C(C(=O)O)=C(CSc3nnnn3C)CS[C@@H]21 [Example 4, 7β-[D-2-(7,8-Dihydroxychromone-3-carboxyamido)-2-(4-hydroxyphenyl)acetamido]-7α-methoxy-3-(1-methyl-5-tetrazolyl)thiomethyl-3-cephem-4-carboxylic acid]	–	0.8 (≈ 1.12 µM)	3.13 (≈ 4.4 µM)	3.13 (≈ 4.4 µM)	0.8 (≈ 1.12 µM)	≤ 0.1	3.13 (≈ 4.4 µM)	50 (≈ 70.3 µM)
CO[C@@]1(NC(=O)[C@H](NC(=O)c2coc3cc(O)c(O)cc3c2=O)c2ccc(O)cc2)C(=O)N2C(C(=O)O)=C(CSc3nnnn3CCN(C)C)CS[C@@H]21 [Example 31, 7β-[D-2-(6,7-Dihydroxychromone-3-carboxamido)-2-(4-hydroxyphenyl)acetamido]-7α-methoxy-3-[1-[2-(N,N-dimethylamino)ethyl]-5-tetrazolyl]thiomethyl-3-cephem-4-carboxylic acid]	–	0.4 (≈ 0.52 µM)	12.5 (≈ 16.3 µM)	3.13 (≈ 4.07 µM)	0.8 (≈ 1.04 µM)	≤ 0.1	3.13 (≈ 4.07 µM)	25 (≈ 32.5 µM)
CO[C@@]1(NC(=O)[C@H](NC(=O)c2coc3cc(OC(=O)OCC(Cl)(Cl)Cl)c(OC(=O)OCC(Cl)(Cl)Cl)cc3c2=O)c2ccccc2)C(=O)N2C(C(=O)O)=C(COC(C)=O)CS[C@@H]21 [Example 24, 7β-[D-2-(6,7-Bis(2,2,2-trichloroethoxy-carbonyloxy)chromon-3-carboxamido)2-phenylacetamido]-7α-methoxy-3-acetoxymethyl-3-cephem-4-carboxylic acid]	–	0.8 (≈ 0.808 µM)	12.5 (≈ 12.6 µM)	3.13 (≈ 3.16 µM)	1.56 (≈ 1.58 µM)	≤ 0.1	6.25 (≈ 6.31 µM)	25 (≈ 25.2 µM)
